Measurements as given in patent US7112559B1, “Thickened quaternary ammonium compound sanitizer” (Ecolab Inc., priority 2005, dated 2006).

Assays:
[1] = tested on: Salmonella typhi, ATCC # 6539; test: Bactericidal efficacy vs. chlorine standard (available chlorine equivalence); type: cell-based; set-up: key to Growth in Test Tube 8 / Growth in Test Tube 9 / Growth in Test Tube 10 / Growth in Test Tube 1 / Growth in Test Tube 2 / Growth in Test Tube 3 / Growth in Test Tube 4 / Growth in Test Tube 5 / Growth in Test Tube 6 / Growth in Test Tube 7: (+) = growth; (−) = no growth; conditions: S. typhi
Protocol: (§1) Example 2 compared the bactericidal efficacy of the thickened quaternary ammonium compound sanitizer composition (Formula 7) to that of a known concentration of chlorine. […] The mix order for Formula 7 is as follows: (1) water; (2) propylene glycol; (3) LonzaGuard; (4) FD&C Red #40; (5) Methocel; (6) Triethanolamine; and (7) Ethanol. Formula 7 and the chlorine standard were tested against Staphylococcus aureus, ATCC # 6538 and Salmonella typhi, ATCC # 6539. The chlorine standard was prepared by adding 0.1 ml of a 5% NaOCl stock solution (refrigerated Clorox® bleach) to 100 ml of sterile phosphate buffer solution to create a 50–55 ppm available chlorine concentration.
(§2) For the chlorine standard test, 0.05 ml of the test culture was added to a test tube with 50 ppm available chlorine. The test tube was placed in a 20° C. water bath. After 1 minute, the solution was transferred to test tube 1 with 10 ml of Fluid Thioglycollate medium (commercially available from Becton Dickinson (Sparks, Md.)). These steps were repeated for nine test tubes.
(§3) For Formula 7, the same series of test tubes used for the available chlorine test was used to test the quaternary ammonium compound sanitizer composition. 0.05 ml of test culture was added to Formula 7. The test tube was placed in a 20° C. water bath. After 1 minute, the solution was transferred to a test tube with 10 ml of Letheen broth in place of the Fluid Thioglycollate medium.
(§4) The formulas in Table 4 were tested with Staphylococcus aureus, ATCC # 6538 and Salmonella typhi, ATCC # 6539. […] A “+” sign means that the test tube had bacteria growth.
(§5) Equivalency is met when the sample tubes have an absence of growth in as many tubes as the chlorine standard.

[2] = tested on: Staphylococcus aureus, ATCC # 6538; test: as above; type: cell-based; set-up: key to Growth in Test Tube 8 / Growth in Test Tube 9 / Growth in Test Tube 10 / Growth in Test Tube 1 / Growth in Test Tube 2 / Growth in Test Tube 3 / Growth in Test Tube 4 / Growth in Test Tube 5 / Growth in Test Tube 6 / Growth in Test Tube 7: (+) = growth; (−) = no growth; conditions: S. aureus
Protocol: as §1, §2, §3, §4, §5

[3] = text does not separate the organisms

With `[Na+].[O-]Cl` [NaOCl] the “Growth in Test Tube 1” value ([1]; 1 minute, 20° C.) was “−”, the “Growth in Test Tube 2” value ([1]; 1 minute, 20° C.) was “−” and the “Growth in Test Tube 3” value ([1]; 1 minute, 20° C.) was “+”. For the same compound, the “Growth in Test Tube 4” value ([1]; 1 minute, 20° C.) was “+”, the “Growth in Test Tube 5” value ([1]; 1 minute, 20° C.) was “+” and the “Growth in Test Tube 6” value ([1]; 1 minute, 20° C.) was “+”. For the same compound, the “Growth in Test Tube 7” value ([1]; 1 minute, 20° C.) was “+”, the “Growth in Test Tube 8” value ([1]; 1 minute, 20° C.) was “+” and the “Growth in Test Tube 9” value ([1]; 1 minute, 20° C.) was “+”. For the same compound, the “Growth in Test Tube 10” value ([1]; 1 minute, 20° C.) was “+”, the “Growth in tubes 1–10” value [1, 3] was “growth in tubes 3–10” and the “Growth in Test Tube 1” value ([2]; 1 minute, 20° C.) was “−”. For the same compound, the “Growth in Test Tube 2” value ([2]; 1 minute, 20° C.) was “−”, the “Growth in Test Tube 3” value ([2]; 1 minute, 20° C.) was “+” and the “Growth in Test Tube 4” value ([2]; 1 minute, 20° C.) was “+”. The “Growth in Test Tube 5” value ([2]; 1 minute, 20° C.) was “+”, the “Growth in Test Tube 6” value ([2]; 1 minute, 20° C.) was “+” and the “Growth in Test Tube 7” value ([2]; 1 minute, 20° C.) was “+”. The “Growth in Test Tube 8” value ([2]; 1 minute, 20° C.) was “+”, the “Growth in Test Tube 9” value ([2]; 1 minute, 20° C.) was “+” and the “Growth in Test Tube 10” value ([2]; 1 minute, 20° C.) was “+”. For the same compound, the “Growth in tubes 1–10” value [2, 3] was “growth in tubes 3–10”.
